Assay results reported in article PMC4574779, “Selective Production of 9R-Hydroxy-10E,12Z,15Z-Octadecatrienoic Acid from α-Linolenic Acid in Perilla Seed Oil Hydrolyzate by a Lipoxygenase from Nostoc Sp. SAG 25.82” (PLoS ONE, 2015).

Biological target: T1, 9R-LOX (9R-lipoxygenase) from Nostoc sp. SAG 25.82 (Nostoc sp. PCC 7120 = FACHB-418, UniProt Q8YK97)
T1 construct: gene all8020; 9R-lox/pET-15b, His-tagged, E. coli ER2566, His-Trap purified
T1 sequence (Q8YK97 318-773 limits assumed): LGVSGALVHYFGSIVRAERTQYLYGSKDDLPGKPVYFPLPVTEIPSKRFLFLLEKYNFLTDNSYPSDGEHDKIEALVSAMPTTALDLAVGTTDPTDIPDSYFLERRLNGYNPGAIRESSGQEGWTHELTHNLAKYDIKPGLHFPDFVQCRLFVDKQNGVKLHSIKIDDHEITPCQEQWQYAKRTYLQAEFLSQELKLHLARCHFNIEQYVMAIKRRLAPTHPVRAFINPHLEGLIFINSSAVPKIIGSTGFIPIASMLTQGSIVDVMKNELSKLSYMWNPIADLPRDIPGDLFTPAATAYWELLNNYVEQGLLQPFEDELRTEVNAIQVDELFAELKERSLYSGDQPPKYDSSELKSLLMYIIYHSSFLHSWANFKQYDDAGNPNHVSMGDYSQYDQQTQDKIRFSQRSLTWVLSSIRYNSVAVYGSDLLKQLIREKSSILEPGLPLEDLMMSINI
Experiment: oxygen uptake (Clark-type electrode), nonlinear Michaelis-Menten fit
Format: biochemical
Details: O2 co-substrate; 50 mM Tris-HCl pH 8.5; 25°C in methods (results text: 15°C, 5% acetone, 0.2% Tween 80)
Excerpt: oxygen uptake (Clark-type electrode), nonlinear Michaelis-Menten fit on 9R-LOX (9R-lipoxygenase) from Nostoc sp. SAG 25.82

For `CC/C=C\C/C=C\C/C=C\CCCCCCCC(=O)O` [ALA, α-Linolenic acid], which Km is on record?
The Km was 54 ± 1.3 µM.

For `CCCCC/C=C\C/C=C\C/C=C\CCCCC(=O)O` [GLA, γ-Linolenic acid], which Km is on record?
Its Km is 54 ± 0.8 µM.

Which Km does the source give for `CCCCC/C=C\C/C=C\CCCCCCCC(=O)O` [LA, Linoleic acid] here?
The Km was 404 ± 30 µM.
